Source: ChEMBL document CHEMBL1157661 (Bioorg Med Chem, 2010)
In brackets after ≈: the same amount, converted by molar mass.

Key:
[1] = target: T1, Adenosine receptor A1 (Homo sapiens) (UniProt P30542); test: Displacement of [3H]DPCPX from human recombinant adenosine A1 receptor expressed in CHO-A1 cell membrane at 10 uM; assay type: cell membranes
T1 sequence (whole entry): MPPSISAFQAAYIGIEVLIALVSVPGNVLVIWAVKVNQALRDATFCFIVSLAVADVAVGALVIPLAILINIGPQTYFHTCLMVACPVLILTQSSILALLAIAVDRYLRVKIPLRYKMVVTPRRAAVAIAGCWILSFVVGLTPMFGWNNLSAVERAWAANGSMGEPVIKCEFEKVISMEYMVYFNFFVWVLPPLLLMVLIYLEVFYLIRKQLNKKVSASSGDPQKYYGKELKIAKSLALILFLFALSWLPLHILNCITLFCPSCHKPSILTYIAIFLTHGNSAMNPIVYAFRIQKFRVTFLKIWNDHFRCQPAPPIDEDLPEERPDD

[2] = target: Adenosine receptor A2a (Homo sapiens) (UniProt P29274); test: Displacement of [3H]ZM241385 from human recombinant adenosine A2A receptor expressed in human HeLa cell membrane at 10 uM; assay type: cell membranes
[3] = target: T2, Adenosine receptor A2b (Homo sapiens) (UniProt P29275); test: Displacement of [3H]DPCPX from human recombinant adenosine A2B receptor expressed in HEK293 cell membrane at 10 uM; assay type: cell membranes
T2 sequence (whole entry): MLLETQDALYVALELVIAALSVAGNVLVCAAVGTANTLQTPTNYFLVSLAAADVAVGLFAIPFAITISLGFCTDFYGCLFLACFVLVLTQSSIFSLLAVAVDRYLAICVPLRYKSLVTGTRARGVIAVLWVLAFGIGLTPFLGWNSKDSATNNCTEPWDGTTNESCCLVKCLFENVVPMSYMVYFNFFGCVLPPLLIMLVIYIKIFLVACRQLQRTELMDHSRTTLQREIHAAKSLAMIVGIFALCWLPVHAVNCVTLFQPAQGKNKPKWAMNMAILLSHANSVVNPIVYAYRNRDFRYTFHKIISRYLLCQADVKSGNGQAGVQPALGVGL

[4] = target: T3, Adenosine receptor A3 (Homo sapiens) (UniProt P0DMS8); test: Displacement of [3H]NECA from human recombinant adenosine A3 receptor expressed in human HeLa cell membrane at 10 uM; assay type: cell membranes
T3 sequence (whole entry): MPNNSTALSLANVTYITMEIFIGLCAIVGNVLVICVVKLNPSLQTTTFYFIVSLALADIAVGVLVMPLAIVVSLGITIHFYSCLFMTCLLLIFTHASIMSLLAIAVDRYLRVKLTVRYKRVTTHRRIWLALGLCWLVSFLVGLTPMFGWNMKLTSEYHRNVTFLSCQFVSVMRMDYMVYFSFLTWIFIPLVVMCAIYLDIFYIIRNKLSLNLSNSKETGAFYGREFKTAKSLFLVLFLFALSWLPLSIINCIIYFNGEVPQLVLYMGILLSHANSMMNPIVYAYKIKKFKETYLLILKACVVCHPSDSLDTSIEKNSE

[5] = Solubility in water; assay type: physicochemical
[6] = Solubility in glycerin; assay type: physicochemical
[7] = Solubility in di(ethylene glycol); assay type: physicochemical
Adenosine receptor A1 = target: T4, Adenosine receptor A1 (Homo sapiens, UniProt P30542); test: Displacement of [3H]DPCPX from human recombinant adenosine A1 receptor expressed in CHO-A1 cell membrane; assay type: cell membranes
T4 sequence (P30542 whole entry): T1 sequence (whole entry)

Adenosine receptor A2a (Homo sapiens), sequence (P29274 whole entry): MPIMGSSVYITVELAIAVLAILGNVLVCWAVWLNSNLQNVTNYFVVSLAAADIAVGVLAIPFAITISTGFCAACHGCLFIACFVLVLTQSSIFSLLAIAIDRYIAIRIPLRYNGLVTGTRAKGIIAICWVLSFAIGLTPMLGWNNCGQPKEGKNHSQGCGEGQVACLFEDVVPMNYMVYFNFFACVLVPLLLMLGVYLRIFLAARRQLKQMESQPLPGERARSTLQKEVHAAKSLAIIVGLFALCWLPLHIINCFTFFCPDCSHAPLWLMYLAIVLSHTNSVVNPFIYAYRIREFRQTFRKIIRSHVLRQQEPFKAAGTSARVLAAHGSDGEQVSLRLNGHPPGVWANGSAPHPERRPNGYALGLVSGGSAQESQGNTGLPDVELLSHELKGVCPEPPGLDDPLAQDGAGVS

Cn1c(=O)c2c(ncn2CCOCCOCCOCCN=[N+]=[N-])n(C)c1=O
inhibition [1]: 24%
inhibition [2]: 17%
inhibition [3]: 3%
inhibition [4]: 2%

COCCOCCOCc1nc2c([nH]1)c(=O)n(C)c(=O)n2C
inhibition [1]: 37%
inhibition [2]: 20%
inhibition [3]: 10%
inhibition [4]: 1%
solubility [5]: 14 mM (≈ 4370 µg/mL)
solubility [6]: Insoluble
solubility [7]: 10 mM (≈ 3120 µg/mL)

C=CCCCCCCCCCOCCOCCOCCOCCn1cnc2c1c(=O)n(C)c(=O)n2C
Ki (Adenosine receptor A1): 5 µM
inhibition [1]: 53%
inhibition [2]: 18%
inhibition [3]: 47%
inhibition [4]: 19%
